The assay concerns the target T1, human histamine H3 receptor (Homo sapiens, UniProt Q9Y5N1).
T1 construct: host or cells: cells expressing the human H3 receptor
Put plainly: H3 GTPγS assay (SPA method), histamine H3 in vitro assay. It counts as biochemical. As to conditions: GTPγ[35S] binding to membranes of cells expressing human H3; antagonist mode with R-γ-Me-Histamine at EC80 (30 nM); in one embodiment HCl salts tested; read-out: Potency (functional potency as indicated by IC50). As for the experimental part: H3 GTPγS assay (SPA method) was performed at EuroScreen (Belgium, ES-392-C) using conventional methods. Briefly, cells expressing the human histamine H3 receptor were homogenized in 15 mM Tris-HCl pH 7.5, 2 mM MgCl2, 0.3 mM EDTA, and 1 mM EGTA. Membranes were washed twice in the above tris buffer, collected by centrifugation (40,000×g, 25 min), and re-suspended in 75 mM Tris-HCl pH 7.5, 12.5 mM MgCl2, 0.3 mM EDTA, 1 mM EGTA, and 250 mM sucrose. Membranes were frozen in liquid nitrogen until use. On the day of the assay, membranes were thawed and diluted in assay buffer (20 mM HEPES pH 7.4, 100 mM NaCl, 10 μg/ml saponin, 1 mM MgCl2) to give 500 μg/ml and mixed (v/v) with GDP in assay buffer for a final GDP concentration of 10 μM and incubated on ice for at least 15 min. PVT-WGA beads (Amersham, RPNQ001) were diluted in assay buffer at 50 mg/mL and mixed with GTPγ[^35S] (Amersham, SJ1308) diluted in assay buffer to give ˜25,000 dpm/10 μL and mixed vol/vol just before the start of the reaction. The reaction was started by adding 50 μL of test compound, 20 μL of the membranes:GDP mix, 10 μL of buffer, and 20 μL of the GTPγ[^35S]:beads mix in a 96 well plate Optiplate™ (PerkinElmer, 6005299) covered with topseal (TopCount™, PerkinElmer), mixed with an orbital shaker for 2 min, incubated for 1 hour at room temperature, centrifuged for 10 min at 2000 rpm, incubated for 1 h at room temperature, and counted for 1 min in a TopCount™ reader (PerkinElmer). Dose response curves and IC50 values (concentration to inhibit the reaction by 50%) were calculated by nonlinear regression using XLfit software (IDBS).
For antagonists testing, 10 μL of a reference agonist (R-γ-Me-Histamine) instead of 10 μL buffer was added at a concentration corresponding to the EC80 (30 nM). Control ligands were R-γ-Me-Histamine (Tocris, 0569), Imetit (Sigma, I-135), Thioperamide (Tocris, 0644), and Clobenpropit (Tocris, 0754) diluted in assay buffer.
The compounds provided herein were tested in the histamine H3 in vitro assay. In one embodiment, the respective HCl salts of the compounds provided herein were prepared using standard chemical procedures and tested in the histamine H3 in vitro assay.
T1 sequence (Q9Y5N1 whole entry): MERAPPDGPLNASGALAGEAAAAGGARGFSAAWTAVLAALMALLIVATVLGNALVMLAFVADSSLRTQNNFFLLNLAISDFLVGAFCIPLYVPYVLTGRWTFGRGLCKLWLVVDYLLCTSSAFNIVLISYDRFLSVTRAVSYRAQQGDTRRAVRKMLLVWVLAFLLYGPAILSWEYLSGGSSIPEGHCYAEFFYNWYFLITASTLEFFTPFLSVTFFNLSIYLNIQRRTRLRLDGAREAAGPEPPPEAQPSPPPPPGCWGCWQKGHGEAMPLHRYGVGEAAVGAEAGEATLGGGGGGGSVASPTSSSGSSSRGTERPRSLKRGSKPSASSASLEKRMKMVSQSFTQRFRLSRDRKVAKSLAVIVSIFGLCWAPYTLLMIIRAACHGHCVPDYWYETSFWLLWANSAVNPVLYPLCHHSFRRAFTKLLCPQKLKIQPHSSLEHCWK
With `c1ccc2c(c1)cnn2-c1ccc2c(c1)nc1n2CCN(C2CCC2)CC1` [Compound 69], the IC50 was not above 100 nM.
As for `c1cnc2c(c1)ccn2-c1ccc2c(c1)nc1n2CCN(C2CCC2)CC1` [Compound 70, 3-cyclobutyl-9-(1H-pyrrolo[2,3-b]pyridin-1-yl)-2,3,4,5-tetrahydro-1H-[1,4]diazepino[1,7-a]benzimidazole], the figure is not above 100 nM; as for `O=c1cccnn1-c1ccc2c(c1)nc1n2CCN(C2CCC2)CC1` [Compound 71, 2-(3-cyclobutyl-2,3,4,5-tetrahydro-1H-[1,4]diazepino[1,7-a]benzimidazol-9-yl)pyridazin-3(2H)-one], not above 1000 nM.
On to `O=c1[nH]c2ccccc2n1-c1ccc2c(c1)nc1n2CCN(C2CCC2)CC1` [Compound 72, 1-(3-cyclobutyl-2,3,4,5-tetrahydro-1H-[1,4]diazepino[1,7-a]benzimidazol-9-yl)-1H-benzo[d]imidazol-2(3H)-one], for which the IC50 was not above 100 nM.
As for `CN1CCN(c2ccc3c(c2)nc2n3CCN(C3CCC3)CC2)CC1` [Compound 73, 3-cyclobutyl-9-(4-methylpiperazin-1-yl)-2,3,4,5-tetrahydro-1H-[1,4]diazepino[1,7-a]benzimidazole], the figure is not above 10 nM; as for `c1cc2c(cc1CN1CCOCC1)nc1n2CCN(C2CCC2)CC1` [Compound 74, 3-cyclobutyl-9-(morpholin-1-ylmethyl)-2,3,4,5-tetrahydro-1H-[1,4]diazepino[1,7-a]benzimidazole], not above 10 nM.
As for `c1cc2c(cc1CN1CCCC1)nc1n2CCN(C2CCC2)CC1` [Compound 75], the figure is not above 10 nM; as for `CNC(=O)c1ccc(Oc2ccc3nc4n(c3c2)CCN(C2CCC2)CC4)nc1` [Compound 76], not below 1000 nM.
Turning to `COc1ccnc(Oc2ccc3nc4n(c3c2)CCN(C2CCC2)CC4)n1` [Compound 78], the IC50 is not above 1000 nM.
As for `COc1ccnc(Nc2ccc3nc4n(c3c2)CCN(C2CCC2)CC4)n1` [Compound 80], the figure is not above 1000 nM; as for `N#Cc1ccc(CNc2ccc3nc4n(c3c2)CCN(C2CCC2)CC4)cc1` [Compound 81], not above 100 nM.
Under `N#Cc1ccc2nc3n(c2c1)CCN(C1CCC1)CC3` [Compound 82] stands not below 1000 nM; under `O=C(c1ccc2nc3n(c2c1)CCN(C1CCC1)CC3)N1CCOCC1` [Compound 84], not above 1000 nM.
Under `CN(C)C(=O)c1ccc2nc3n(c2c1)CCN(C1CCC1)CC3` [Compound 85] stands not below 1000 nM.
`O=C(c1ccc2nc3n(c2c1)CCN(C1CCC1)CC3)N1CCCC1` [Compound 86]: the IC50 was not above 1000 nM.
Under `CN(C)Cc1ccc2nc3n(c2c1)CCN(C1CCC1)CC3` [Compound 87] stands not above 10 nM.
As for `c1cc2nc3n(c2cc1CN1CCOCC1)CCN(C1CCC1)CC3` [Compound 88, 3-cyclobutyl-8-(morpholin-1-ylmethyl)-2,3,4,5-tetrahydro-1H-[1,4]diazepino[1,7-a]benzimidazole], the figure is not above 10 nM; as for `c1cc2nc3n(c2cc1CN1CCCC1)CCN(C1CCC1)CC3` [Compound 89], not above 10 nM.
For `c1coc(-c2ccc3nc4n(c3c2)CCN(C2CCC2)CC4)c1` [Compound 90], the IC50 was not above 1000 nM.
As for `c1cc2c(cc1-c1cnc(N3CCCC3)cn1)nc1n2CCN(C2CCC2)CC1` [Compound 91], the figure is not above 100 nM.
As for `CN1CCN(c2cnc(-c3ccc4c(c3)nc3n4CCN(C4CCC4)CC3)cn2)CC1` [Compound 92, 3-cyclobutyl-9-(5-(4-methylpiperazin-1-yl)pyrazin-2-yl)-2,3,4,5-tetrahydro-1H-[1,4]diazepino[1,7-a]benzimidazole], the figure is not above 10 nM.
Under `c1cc2c(cc1-c1cncc(N3CCCC3)n1)nc1n2CCN(C2CCC2)CC1` [Compound 94, 3-cyclobutyl-9-(6-(pyrrolidin-1-yl)pyrazin-2-yl)-2,3,4,5-tetrahydro-1H-[1,4]diazepino[1,7-a]benzimidazole] stands not above 100 nM; under `CN1CCN(c2cncc(-c3ccc4c(c3)nc3n4CCN(C4CCC4)CC3)n2)CC1` [Compound 95, 3-cyclobutyl-9-(6-(4-methylpiperazin-1-yl)pyrazin-2-yl)-2,3,4,5-tetrahydro-1H-[1,4]diazepino[1,7-a]benzimidazole], not above 10 nM; under `c1cc2c(cc1N1CCN(C3CCCC3)CC1)nc1n2CCN(C2CCC2)CC1` [Compound 100, 3-cyclobutyl-9-(4-cyclopentylpiperazin-1-yl)-2,3,4,5-tetrahydro-1H-[1,4]diazepino[1,7-a]benzimidazole], not above 10 nM.
Regarding `c1cc2c(cc1N1CCN(C3CCCCC3)CC1)nc1n2CCN(C2CCC2)CC1` [Compound 102], the IC50 is not above 10 nM.
As for `c1cc2c(cc1N1CCN(C3CCOCC3)CC1)nc1n2CCN(C2CCC2)CC1` [Compound 103, 3-cyclobutyl-9-(4-(tetrahydro-2H-pyran-4-yl)piperazin-1-yl)-2,3,4,5-tetrahydro-1H-[1,4]diazepino[1,7-a]benzimidazole], the figure is not above 10 nM.
Under `c1cc2c(cc1N1CCN(CC3CC3)CC1)nc1n2CCN(C2CCC2)CC1` [Compound 104, 3-cyclobutyl-9-(4-(cyclopropylmethyl)piperazin-1-yl)-2,3,4,5-tetrahydro-1H-[1,4]diazepino[1,7-a]benzimidazole] stands not above 10 nM.
Under `CN(C)Cc1ccc2c(c1)nc1n2CCN(C2CCC2)CC1` [Compound 105] stands not above 100 nM.
Consider `OCc1ccc2c(c1)nc1n2CCN(C2CCC2)CC1` [Compound 106, 2-(3-cyclobutyl-2,3,4,5-tetrahydro-1H-[1,4]diazepino[1,7-a]benzimidazol-9-yl)methanol], for which the IC50 is not above 1000 nM.
As for `COc1ccnc(OCc2ccc3c(c2)nc2n3CCN(C3CCC3)CC2)n1` [Compound 107], the figure is not above 100 nM; as for `N#Cc1ccc(OCc2ccc3c(c2)nc2n3CCN(C3CCC3)CC2)nc1` [Compound 108, 6-((3-cyclobutyl-2,3,4,5-tetrahydro-1H-[1,4]diazepino[1,7-a]benzimidazol-9-yl)methoxy)nicotino-nitrile], not above 100 nM.
As for `c1cnc(OCc2ccc3c(c2)nc2n3CCN(C3CCC3)CC2)cn1` [Compound 109], the figure is not above 10 nM; as for `OCc1ccc2nc3n(c2c1)CCN(C1CCC1)CC3` [Compound 110, 2-(3-cyclobutyl-2,3,4,5-tetrahydro-1H-[1,4]diazepino[1,7-a]benzimidazol-8-yl)methanol], not above 1000 nM.
Consider `COc1ccnc(OCc2ccc3nc4n(c3c2)CCN(C2CCC2)CC4)n1` [Compound 111], for which the IC50 was not above 1000 nM.
Regarding `N#Cc1ccc(OCc2ccc3nc4n(c3c2)CCN(C2CCC2)CC4)nc1` [Compound 112, 6-((3-cyclobutyl-2,3,4,5-tetrahydro-1H-[1,4]diazepino[1,7-a]benzimidazol-8-yl)methoxy)nicotino-nitrile], the IC50 is not above 1000 nM.
`c1cnc(OCc2ccc3nc4n(c3c2)CCN(C2CCC2)CC4)cn1` [Compound 113, 3-cyclobutyl-9-((pyrazin-2-yloxy)methyl)-2,3,4,5-tetrahydro-1H-[1,4]diazepino[1,7-a]benzimidazole]: the half-inhibitory concentration (IC50) is not above 1000 nM.
Regarding `c1ccc(-c2ccc3c(c2)nc2n3CCN(C3CCC3)CC2)nc1` [Compound 114, 3-cyclobutyl-9-(pyridin-2-yl)-2,3,4,5-tetrahydro-1H-[1,4]diazepino[1,7-a]benzimidazole], the IC50 was not above 100 nM.
Under `c1cncc(-c2ccc3c(c2)nc2n3CCN(C3CCC3)CC2)c1` [Compound 115, 3-cyclobutyl-9-(pyridin-3-yl)-2,3,4,5-tetrahydro-1H-[1,4]diazepino[1,7-a]benzimidazole] stands not above 100 nM; under `OC(c1ccc2c(c1)nc1n2CCN(C2CCC2)CC1)c1cnccn1` (centres unmarked) [Compound 120, (3-cyclobutyl-2,3,4,5-tetrahydro-1H-benzo[4,5]imidazo[1,2-d][1,4]diazepin-8-yl)(pyrazin-2-yl)methanol], not above 100 nM; under `O=C(c1ccc2c(c1)nc1n2CCN(C2CCC2)CC1)c1cnccn1` [Compound 121, (3-cyclobutyl-2,3,4,5-tetrahydro-1H-benzo[4,5]imidazo[1,2-d][1,4]diazepin-8-yl)(pyrazin-2-yl)methanone], not above 100 nM.
As for `c1cnc(Cc2ccc3c(c2)nc2n3CCN(C3CCC3)CC2)cn1` [Compound 122, 3-cyclobutyl-8-(pyrazin-2-ylmethyl)-2,3,4,5-tetrahydro-1H-benzo[4,5]imidazo[1,2-d][1,4]diazepine], the figure is not above 100 nM.

In general, IC50 refers to the concentration at which inhibition is half-maximal.
